Results: patent US9034886B2, “4-aminoquinazoline derivatives and uses thereof” (Shanghai Institute of Pharmaceutical Industry, priority 2011, dated 2015)

Key:
[1] = tested on: Hut78 T lymphocytic leukemia cells; assay: In vitro anti-proliferative effect, CCK-8 method, Hut78; assay type: cell-based
Method in brief: (§1)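 Percent growth inhibition, measured with CCK-8, in Hut78 and K562 leukemia cells at two compound concentrations, 10 μM and 100 μM.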

[2] = tested on: Colo320 human colorectal cancer cell lines; assay: In vitro anti-proliferative effect, CCK-8 method, Colo320; assay type: cell-based
Method in brief: (§2)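 Percent growth inhibition was read by CCK-8 assay after exposure to two concentrations, 100 μM and 10 μM.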

human A549 tumors = assay: Human A549 tumors transplanted in nude mice; assay type: in vivo; settings: nude mice, 50 mg/kg
[3] = tested on: Jurkat E6-1 human T-cell lymphoma; assay: In vitro anti-proliferative effect, CCK-8 method, Jurkat E6-1; assay type: cell-based
Method in brief: as §2

[4] = tested on: Hep3B2.1-7 human liver cancer cells; assay: In vitro anti-proliferative effect, CCK-8 method, Hep3B; assay type: cell-based
Method in brief: as §2

[5] = tested on: PANC-1 human pancreatic cancer cells; assay: In vitro anti-proliferative effect, CCK-8 method, PANC-1; assay type: cell-based
Method in brief: as §2

human PC-3 tumors = assay: Human PC-3 tumors transplanted in nude mice; assay type: in vivo; settings: 50 mg/kg
HDACs = assay: In vitro inhibition of HDACs (HDAC Inhibitor Drug Screening Kit, Biovision K340-100); assay type: biochemical
Protocol: The in vitro inhibitory activities of the compounds towards HDACs were tested according to the instructions in the HDAC Inhibitor Drug Screening Kit (Biovision/Catalog #K340-100).
(1) The compounds to be tested were each individually prepared as 2 mM, 200 μM and 40 μM solutions and their inhibitory activities at these concentrations were tested.

[6] = tested on: K562 human chronic myelogenous leukemia cells; assay: In vitro anti-proliferative effect, CCK-8 method, K562; assay type: cell-based
Method in brief: as §1

[7] = tested on: A549 human lung cancer cells; assay: In vitro anti-proliferative effect, CCK-8 method, A549; assay type: cell-based
Method in brief: as §2

[8] = tested on: MDA-MB-435s human breast cancer cells; assay: In vitro anti-proliferative effect, CCK-8 method, MDA-MB-435s; assay type: cell-based
Method in brief: as §2

[9] = tested on: PC-3 human prostate cancer; assay: In vitro anti-proliferative effect, CCK-8 method, PC-3; assay type: cell-based
Method in brief: as §2

Nc1ccccc1NC(=O)c1ccc(CNC(=O)OCc2cccnc2)cc1 [MS-275, reference compound]
IC50 [1]: 0.528 µM | Hut-78 (inhibition %) ([1]; 100 μM): 85.3% | IC50 [2]: 0.522 µM | Colo320 (inhibition %) 10 μM ([2]; Colo320 cell strain, compound at 10 μM, CCK-8 method): 18.0% | Colo320 (inhibition %) 100 μM ([2]; Colo320 cell strain, compound at 100 μM, CCK-8 method): 61.6% | tumor inhibition %, A549 (lung cancer) (human A549 tumors): 79.41% | deaths, A549 model (human A549 tumors; 8 mice in each group): 3 | IC50 [3]: 0.561 µM | Jurkat E6-1 (inhibition %) ([3]; 10 μM): 89.5% | Jurkat E6-1 (inhibition %) ([3]; 100 μM): 96.1% | IC50 [4]: 6.82 µM | Hep3B (inhibition %) 10 μM ([4]; Hep3B cell strain, compound at 10 μM, CCK-8 method): 10.8% | Hep3B (inhibition %) 100 μM ([4]; Hep3B cell strain, compound at 100 μM, CCK-8 method): 52.1% | PANC-1 (inhibition %) ([5]; 10 μM): 12.4% | PANC-1 (inhibition %) ([5]; 100 μM): 31.6% | tumor inhibition %, PC-3 (human prostate cancer) (human PC-3 tumors): 89.60% | deaths, PC-3 model (human PC-3 tumors; 8 mice in each group): 4 | IC50 (HDACs): 3.52 µM | Inhibition percentage (%) towards HDACs (HDACs; 40 μM): 32.5% | Inhibition percentage (%) towards HDACs (HDACs; 200 μM): 60.5% | Inhibition percentage (%) towards HDACs (HDACs; 2 mM): 82.2% | K562 (inhibition %) ([6]; 10 μM): 66.2% | K562 (inhibition %) ([6]; 100 μM): 74.6% | IC50 [7]: 2.28 µM | A549 (inhibition %) ([7]; 10 μM): 58.9% | A549 (inhibition %) ([7]; 100 μM): 92.3% | 435s (inhibition %) ([8]; 10 μM): 2.7% | 435s (inhibition %) ([8]; 100 μM): 59.3% | IC50 [9]: 0.502 µM | PC-3 (inhibition %) 10 μM ([9]; PC-3 cell strain, compound at 10 μM, CCK-8 method): 12.5% | PC-3 (inhibition %) 100 μM ([9]; PC-3 cell strain, compound at 100 μM, CCK-8 method): 71.5%
